{"source": "patent US5162354A", "about": "“3-halo-5-halomethyl-2-oxazolidinones and their use as microbicides” (Buckman Laboratories International, Inc., priority 1991, dated 1992)", "system": "mixture of Staphylococcus aureus, Enterobacter aerogenes and Pseudomonas aeruginosa", "assay": "Long-term effectiveness in water as disinfectant, basal salts method, mixture of test organisms", "type": "cell-based", "settings": "for activity maintained (percent kill): up to three days post-preparation in water, short contact (up to 10 min)", "protocol": "In order to test the effectiveness of the compounds of the present invention over a period of 15 days, the following experiment was conducted using Compound 1.\nThe basal salts method described in U.S. Pat. No. 2,881,070 at column 5, beginning at line 12 and extending to column 6, line 53 was performed at two different pH values and percent kills were obtained with a mixture of test organisms (Staphylococcus aureus, Enterobacter aerogenes and Pseudomonas aeruginosa). […] At 80 ppm, prolonged sanitizing ability is maintained (99% or greater) with prolonged exposure times (24 hours contact through 15 […] post-preparation in water).\n^a Control indicates the population of the test organism and is used\nto make sure there is vigorous growth and to calculate % kills.", "note": "Where two headings read alike, the source gives them in different places."}
{"smiles": "O=C1OC(CCl)CN1Br", "note": "(stereo not drawn) [Compound 1, 3-Bromo-5-chloromethyl-2-oxazolidinone]", "values": [{"measurement": "killing at 40 ppm", "setting": "10 min, pH 8, Day 15 after preparation in soft water, pH 8.0, 10 min contact, read-out: % Reduction (Kill)", "result": 68.6, "unit": "%"}, {"measurement": "killing at 80 ppm", "setting": "10 min, pH 8, Day 15 after preparation in soft water, 80 ppm, pH 8.0, 10 min contact, read-out: % Reduction (Kill)", "result": 70.2, "unit": "%"}, {"measurement": "killing at 40 ppm", "setting": "24 h, pH 6, Day 1 after preparation in soft water, pH 6.0, 24 hours contact, read-out: % Reduction (Kill)", "result": 100, "unit": "%"}, {"measurement": "killing at 80 ppm", "setting": "24 h, pH 6, Day 1 after preparation in soft water, 80 ppm, pH 6.0, 24 hours contact, read-out: % Reduction (Kill)", "result": 100, "unit": "%"}, {"measurement": "killing at 40 ppm", "setting": "24 h, pH 6, Day 2 after preparation in soft water, pH 6.0, 24 hours contact, read-out: % Reduction (Kill)", "result": 100, "unit": "%"}, {"measurement": "killing at 80 ppm", "setting": "24 h, pH 6, Day 2 after preparation in soft water, 80 ppm, pH 6.0, 24 hours contact, read-out: % Reduction (Kill)", "result": 100, "unit": "%"}, {"measurement": "killing at 40 ppm", "setting": "24 h, pH 6, Day 3 after preparation in soft water, pH 6.0, 24 hours contact, read-out: % Reduction (Kill)", "result": 100, "unit": "%"}, {"measurement": "killing at 80 ppm", "setting": "24 h, pH 6, Day 3 after preparation in soft water, 80 ppm, pH 6.0, 24 hours contact, read-out: % Reduction (Kill)", "result": 100, "unit": "%"}, {"measurement": "killing at 40 ppm", "setting": "24 h, pH 6, Day 4 after preparation in soft water, pH 6.0, 24 hours contact, read-out: % Reduction (Kill)", "result": 99.6, "unit": "%"}, {"measurement": "killing at 80 ppm", "setting": "24 h, pH 6, Day 4 after preparation in soft water, 80 ppm, pH 6.0, 24 hours contact, read-out: % Reduction (Kill)", "result": 99.9, "unit": "%"}, {"measurement": "killing at 40 ppm", "setting": "24 h, pH 6, Day 5 after preparation in soft water, pH 6.0, 24 hours contact, read-out: % Reduction (Kill)", "result": 91.8, "unit": "%"}, {"measurement": "killing at 80 ppm", "setting": "24 h, pH 6, Day 5 after preparation in soft water, 80 ppm, pH 6.0, 24 hours contact, read-out: % Reduction (Kill)", "result": 99.6, "unit": "%"}, {"measurement": "killing at 40 ppm", "setting": "24 h, pH 6, Day 14 after preparation in soft water, pH 6.0, 24 hours contact, read-out: % Reduction (Kill)", "result": 99.8, "unit": "%"}, {"measurement": "killing at 80 ppm", "setting": "24 h, pH 6, Day 14 after preparation in soft water, 80 ppm, pH 6.0, 24 hours contact, read-out: % Reduction (Kill)", "result": 100, "unit": "%"}, {"measurement": "killing at 40 ppm", "setting": "24 h, pH 6, Day 15 after preparation in soft water, pH 6.0, 24 hours contact, read-out: % Reduction (Kill)", "result": 96, "unit": "%"}, {"measurement": "killing at 80 ppm", "setting": "24 h, pH 6, Day 15 after preparation in soft water, 80 ppm, pH 6.0, 24 hours contact, read-out: % Reduction (Kill)", "result": 100, "unit": "%"}, {"measurement": "killing at 40 ppm", "setting": "24 h, pH 8, Day 1 after preparation in soft water, pH 8.0, 24 hours contact, read-out: % Reduction (Kill)", "result": 100, "unit": "%"}, {"measurement": "killing at 80 ppm", "setting": "24 h, pH 8, Day 1 after preparation in soft water, 80 ppm, pH 8.0, 24 hours contact, read-out: % Reduction (Kill)", "result": 100, "unit": "%"}, {"measurement": "killing at 40 ppm", "setting": "24 h, pH 8, Day 2 after preparation in soft water, pH 8.0, 24 hours contact, read-out: % Reduction (Kill)", "result": 100, "unit": "%"}, {"measurement": "killing at 80 ppm", "setting": "24 h, pH 8, Day 2 after preparation in soft water, 80 ppm, pH 8.0, 24 hours contact, read-out: % Reduction (Kill)", "result": 100, "unit": "%"}, {"measurement": "killing at 40 ppm", "setting": "24 h, pH 8, Day 3 after preparation in soft water, pH 8.0, 24 hours contact, read-out: % Reduction (Kill)", "result": 100, "unit": "%"}, {"measurement": "killing at 80 ppm", "setting": "24 h, pH 8, Day 3 after preparation in soft water, 80 ppm, pH 8.0, 24 hours contact, read-out: % Reduction (Kill)", "result": 100, "unit": "%"}, {"measurement": "killing at 40 ppm", "setting": "24 h, pH 8, Day 4 after preparation in soft water, pH 8.0, 24 hours contact, read-out: % Reduction (Kill)", "result": 98.7, "unit": "%"}, {"measurement": "killing at 80 ppm", "setting": "24 h, pH 8, Day 4 after preparation in soft water, 80 ppm, pH 8.0, 24 hours contact, read-out: % Reduction (Kill)", "result": 100, "unit": "%"}, {"measurement": "killing at 40 ppm", "setting": "24 h, pH 8, Day 5 after preparation in soft water, pH 8.0, 24 hours contact, read-out: % Reduction (Kill)", "result": 99.9, "unit": "%"}, {"measurement": "killing at 80 ppm", "setting": "24 h, pH 8, Day 5 after preparation in soft water, 80 ppm, pH 8.0, 24 hours contact, read-out: % Reduction (Kill)", "result": 99.9, "unit": "%"}, {"measurement": "killing at 40 ppm", "setting": "24 h, pH 8, Day 14 after preparation in soft water, pH 8.0, 24 hours contact, read-out: % Reduction (Kill)", "result": 99.5, "unit": "%"}, {"measurement": "killing at 80 ppm", "setting": "24 h, pH 8, Day 14 after preparation in soft water, 80 ppm, pH 8.0, 24 hours contact, read-out: % Reduction (Kill)", "result": 99.9, "unit": "%"}, {"measurement": "killing at 40 ppm", "setting": "24 h, pH 8, Day 15 after preparation in soft water, pH 8.0, 24 hours contact, read-out: % Reduction (Kill)", "result": 99.3, "unit": "%"}, {"measurement": "killing at 80 ppm", "setting": "24 h, pH 8, Day 15 after preparation in soft water, 80 ppm, pH 8.0, 24 hours contact, read-out: % Reduction (Kill)", "result": 100, "unit": "%"}, {"measurement": "killing at 80 ppm", "setting": "24 h, read-out: prolonged sanitizing ability maintained (percent kill), 80 ppm, 24 hours contact, through 15 days post-preparation in water", "result": "≥ 99", "unit": "%"}, {"measurement": "activity maintained (percent kill)", "setting": "pH 6", "result": "≥ 99.99", "unit": "%"}, {"measurement": "activity maintained (percent kill)", "setting": "pH 8", "result": "≥ 99.96", "unit": "%"}]}
